In one data set the test system is MKN-45 cells. Kind of data set: Anti-proliferation activity, CTG, MKN-45 cells. It counts as cell-based. The following applies: Homo sapiens; MKN-45 cells, 48 h, CTG. How it is done:
(§1) Experimental objective: To evaluate the anti-proliferation activities of the compounds against MKN-45 cells, EBC-1 cells, Hs746T cells and Vero cells.
(§2) Experimental methods: Tumor cell lines were cultured and periodically passaged, and cells in logarithmic growth phase were taken for plate spreading. The cells were stained with Trypan blue, counted and adjusted to an appropriate density. 50 μL of cell suspension was added into each well of a culture plate, and 50 μL of nutrient solution without cells was added into a blank control well. The culture plate was precultured for 24 h in an incubator under the condition of 37° C., 5% CO2 and 100% relative humidity.
(§3) The DMSO stock solutions of the compounds 1-28 and Capmatinib were prepared, and diluted with Tecan D300e. Each compound was diluted to 7 concentration levels: 0.50 μM, 0.125 μM, 0.031 μM, 0.0078 μM, 0.0020 μM, 0.00049 μM, 0.00012 μM. The experiment was carried out in triplicate.
(§4) 50 μL of the solution was added into each designated well, and the culture plate was incubated for 48 h. 50 μL of CTG working solution was added to each well. The culture plate was wrapped with aluminum foil to avoid light and shaken in the shaker for 2 min to induce cell lysis. The culture plate was placed at room temperature for 10 min to stabilize light-emitting signal which was detected with a 2014 EnVision plate reader. Experimental data was processed by GraphPad Prism 7 to calculate IC50.

Another data set in a line: in vivo. The conditions noted are these: both, Kunming, mouse, po.
A further data set has as its system EBC-1 cells. In words: Anti-proliferation activity, CTG, EBC-1 cells. It counts as cell-based, human. The conditions noted are these: Homo sapiens; EBC-1 cells, 48 h, CTG. How it is done: as §1, §2, §3, §4
Data set [1] deals with human EBC-1 cell subcutaneous xenograft model. Kind of data set: In vivo anti-tumor assessment in EBC-1 cell xenograft tumor mouse model. Also on record: species or system mice. The conditions noted are these: 10 mg/kg P.O. QD × 15 days; for inhibition of growth of the tumor in mice (tumor volume change): FIG. 2. How it is done:
Experimental objective: To investigate in vivo efficacy of representative compounds on human lung squamous carcinoma cell (human EBC-1 cell) subcutaneous xenograft model.
Experimental methods: The EBC-1 cell xenograft tumor mouse model was used, according to the diameters of tumor, the tumor volume (TV), relative tumor volume (RTV), relative tumor proliferation rate (T/C (%)) and tumor growth inhibition value (TGI (%)) were calculated.
TGI (%) or T/C (%) of the compounds was evaluated. TGI (%) reflects a tumor growth inhibitory rate. TGI (%) was calculated as follows: TGI (%)=[1−(average tumor volume at the end of administration in a treatment group-average tumor volume at the beginning of administration in the treatment group)/(average tumor volume at the end in a solvent control group-average tumor volume at the beginning in the solvent control group)]×100%.
T/C (%) was calculated as follows: T/C (%)=TRTV/CRTV×100%; where TRTV is treatment RTV, and CRTV is negative control RTV. According to the measurement results of the tumor, RTV was calculated, and the calculating formula for RTV is as follows: RTV=Vt/V0; where V0 is the average tumor volume measured on the day of first administration; and Vt is the average tumor volume measured on a specified day. TRTV and CRTV were measured on the same day.

The next data set has as its system Vero cells. In words: Anti-proliferation activity, CTG, Vero cells. It counts as cell-based. The conditions noted are these: Chlorocebus sabaeus; Vero cells, 48 h, CTG. How it is done:
as §1, §2, §3, §4

For a further data set, the system named is Hs746T cells. Kind of data set: Anti-proliferation activity, CTG, Hs746T cells. It counts as cell-based. The conditions noted are these: Homo sapiens; Hs746T cells, 48 h, CTG. How it is done: as §1, §2, §3, §4
In another data set the target is c-MET (Homo sapiens (Human), UniProt P08581). Kind of data set: c-MET kinase inhibitory activity (ELISA, poly(Glu,Tyr) substrate). The following applies: ATP 4 μM, 37° C. 1 h; read-out: c-MET kinase inhibitory enzymatic activity IC50. It counts as biochemical. On the technique in general: In an ELISA, binding on a coated surface is turned into a signal by an enzyme label.
c-MET, sequence (P08581 25-1390): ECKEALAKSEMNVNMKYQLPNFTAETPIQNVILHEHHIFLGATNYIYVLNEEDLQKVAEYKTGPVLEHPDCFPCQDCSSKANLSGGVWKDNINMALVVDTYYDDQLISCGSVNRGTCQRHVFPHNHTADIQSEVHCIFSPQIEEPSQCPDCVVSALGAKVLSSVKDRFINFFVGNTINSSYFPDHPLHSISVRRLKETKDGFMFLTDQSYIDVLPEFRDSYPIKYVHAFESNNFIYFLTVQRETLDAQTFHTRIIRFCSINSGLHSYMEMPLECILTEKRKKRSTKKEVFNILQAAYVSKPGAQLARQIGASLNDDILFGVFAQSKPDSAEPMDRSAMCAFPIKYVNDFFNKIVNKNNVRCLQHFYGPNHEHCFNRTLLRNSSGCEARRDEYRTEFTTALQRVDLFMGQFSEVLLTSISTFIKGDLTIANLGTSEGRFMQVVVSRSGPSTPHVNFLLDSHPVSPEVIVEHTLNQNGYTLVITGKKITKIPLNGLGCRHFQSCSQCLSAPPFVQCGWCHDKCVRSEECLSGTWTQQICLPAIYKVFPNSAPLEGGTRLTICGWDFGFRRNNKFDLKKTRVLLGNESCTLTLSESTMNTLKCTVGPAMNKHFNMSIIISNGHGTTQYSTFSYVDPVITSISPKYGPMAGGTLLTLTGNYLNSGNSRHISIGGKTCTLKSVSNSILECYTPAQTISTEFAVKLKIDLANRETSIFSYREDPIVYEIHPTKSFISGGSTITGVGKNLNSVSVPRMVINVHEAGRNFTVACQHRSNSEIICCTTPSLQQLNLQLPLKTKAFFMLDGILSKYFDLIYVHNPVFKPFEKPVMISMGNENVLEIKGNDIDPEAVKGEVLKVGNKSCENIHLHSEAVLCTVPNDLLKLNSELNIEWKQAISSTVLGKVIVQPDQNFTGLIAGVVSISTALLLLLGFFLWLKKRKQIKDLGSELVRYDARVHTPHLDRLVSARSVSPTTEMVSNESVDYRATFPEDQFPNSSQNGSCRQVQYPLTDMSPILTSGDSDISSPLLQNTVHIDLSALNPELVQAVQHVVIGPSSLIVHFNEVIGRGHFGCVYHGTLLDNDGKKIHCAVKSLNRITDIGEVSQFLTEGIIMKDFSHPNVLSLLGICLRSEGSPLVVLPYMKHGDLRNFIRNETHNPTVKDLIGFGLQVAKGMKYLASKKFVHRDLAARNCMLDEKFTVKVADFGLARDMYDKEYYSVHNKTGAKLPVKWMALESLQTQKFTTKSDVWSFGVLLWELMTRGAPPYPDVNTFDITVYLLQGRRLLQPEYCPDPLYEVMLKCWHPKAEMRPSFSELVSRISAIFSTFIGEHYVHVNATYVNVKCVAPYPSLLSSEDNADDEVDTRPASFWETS

Usually IC50 stands for the concentration that inhibits the measured activity by half. As a reminder, the LD50 is the dose expected to kill half of the subjects tested. A lower LD50 goes with a more toxic substance. For the compound `CNC(=O)c1ccc(-c2cnc3ncc(Cc4ccc5ncccc5c4)n3n2)cc1F` [Capmatinib, reference compound], the IC50 in the data set on MKN-45 cells was determined as 5.7 nM; with EBC-1 cells it was 3.9 nM; in the data set on Vero cells, 68 nM; in the data set with Hs746T cells it was 4.5 nM. The compound also yielded a 50% lethal dose (LD50) in “in vivo” of 164 mg/kg. Also, the “T/C(%)” value in data set [1] is 24.97%. Moreover, the “TGI(%)” value in data set [1] was found to be 91.23%. Besides, the “Tumor Volume (Day 15)” value in data set [1] came to 225 ± 25 mm^3. In addition, the “changes in body weight of the mice” value in data set [1] (end of the experiment, FIG. 1) is given as “greater losses in body weight compared to those in the other groups”. Besides, the “inhibition of growth of the tumor in mice (tumor volume change)” value in data set [1] (end of the experiment) is “could effectively inhibit the growth of the tumor in mice”.

For `CNC(=S)c1ccc(-c2cnc3ncc(Cc4ccc5scnc5c4)n3n2)cc1F` [Compound 19], the IC50 in the data set with MKN-45 cells came to 1.9 nM; at c-MET, 0.0019 nM; with EBC-1 cells, 1.4 nM; in the data set with Vero cells it was 251 nM; in the data set with Hs746T cells it was 1.4 nM. In the data set “in vivo”, this compound showed an LD50 of 297 mg/kg.

For the compound `CNC(=S)c1ccc(-c2cnc3ncc(Cc4ccc5ncccc5c4)n3n2)cc1O` [Compound 11], the IC50 with MKN-45 cells came to 1.4 nM; on c-MET, 0.0025 nM; with EBC-1 cells, 1.8 nM; in the data set on Vero cells, 231 nM; in the data set on Hs746T cells, 1.4 nM. Further, the LD50 in “in vivo” is 296 mg/kg.

For `CC(C)NC(=S)c1ccc(-c2cnc3ncc(Cc4ccc5ncccc5c4)n3n2)cc1F` [Compound 3], the IC50 in the data set with MKN-45 cells was determined as 1.5 nM; at c-MET it was 0.0016 nM; with EBC-1 cells, 1.8 nM; with Vero cells, 101 nM; in the data set on Hs746T cells it was 1.5 nM. For the same compound, in the data set “in vivo”, the LD50 was found to be 291 mg/kg.

Consider `CNC(=S)c1ccc(-c2cnc3ncc(Cc4ccc5ncccc5c4)n3n2)cc1NC` [Compound 10], for which the IC50 with MKN-45 cells turned out to be 1.8 nM; at c-MET, 0.0016 nM; in the data set with EBC-1 cells, 1.9 nM; in the data set with Vero cells, 164 nM; in the data set on Hs746T cells, 1.5 nM. This compound also yielded an LD50 in “in vivo” of 292 mg/kg.

As to `CNC(=S)c1ccc(-c2cnc3ncc(Cc4ccc5nccnc5c4)n3n2)cc1F` [Compound 17], the IC50 was 1.2 nM in the data set on MKN-45 cells; 0.0016 nM at c-MET; 1.6 nM with EBC-1 cells; 123 nM with Vero cells; 1.2 nM with Hs746T cells. The 50% lethal dose (LD50) in “in vivo” worked out at 318 mg/kg. Besides, the “T/C(%)” value in data set [1] worked out at 20.42%. The “TGI(%)” value in data set [1] was determined as 96.76%. Besides, the “Tumor Volume (Day 15)” value in data set [1] came to 184 ± 27 mm^3. The “inhibition of growth of the tumor in mice (tumor volume change)” value in data set [1] (end of the experiment) was “better inhibitory effects”.

With `CNC(=S)c1ccc(-c2cnc3ncc(Cc4cc(F)c5ncccc5c4F)n3n2)cc1F` [Compound 14], the IC50 in the data set with MKN-45 cells worked out at 1.5 nM; on c-MET, 0.0026 nM; with EBC-1 cells, 1.2 nM; in the data set with Vero cells, 226 nM; in the data set on Hs746T cells, 1.1 nM. In “in vivo”, this compound registered an LD50 of 291 mg/kg.

The record behind these values is US20240294535A1, “IMIDAZOTRIAZINE THIOBENZAMIDE DERIVATIVE, AND PREPARATION METHOD AND APPLICATION THEREOF” (Yunbaiyao Zhengwu Science and Technology (Shanghai) Co., …, priority 2023, published 2024).
